According to patent US10385055B2, “Tricyclic gyrase inhibitors” (Merck Sharp & Dohme Corp., priority 2013, dated 2019):
≈ marks a conversion by molar mass, not a printed value. Where “and” joins values, the source holds several entries; their conditions need not be identical. Equal values may be shown once.

Legend:
S. aureus = experiment: Anti-bacterial efficacy (MIC), S. aureus; format: cell-based; settings: for MIC: Staphylococcus aureus, Table 3; for MIC Sa: Table 2
E. coli = experiment: Anti-bacterial efficacy (MIC), E. coli; format: cell-based; settings: for MIC: Escherichia coli, Table 3; for MIC Ec: Table 2
K. pneumoniae = experiment: Anti-bacterial efficacy (MIC), K. pneumoniae; format: cell-based; settings: for MIC: Klebsiella pneumoniae, Table 3; for MIC Kpn: Table 2
A. baumannii = experiment: Anti-bacterial efficacy (MIC), A. baumannii; format: cell-based; settings: for MIC: Acinetobacter baumannii, Table 3; for MIC Ab: Table 2
P. aeruginosa = experiment: Anti-bacterial efficacy (MIC), P. aeruginosa; format: cell-based; settings: for MIC: Pseudomonas aeruginosa, Table 3; for MIC Pa: Table 2
Caco-2 cell monolayer = Caco-2 cell monolayer permeability; format: in vitro ADME, human; settings: Caco-2 monolayer permeability
Excerpt: Oral bioavailability can be assessed by various methods such as measuring the Caco-2 cell monolayer permeability, and measuring pharmacokinetic properties by calculating the ratio of the AUC from oral administration to the AUC from intravenous administration. Both methods are used to assess compounds here as illustrated in Examples 8-9. In some aspects, compounds herein show the highest membrane (Caco-2 cell monolayer) permeability among all the compounds tested. The Caco-2 cell line is a continuous cell of heterogeneous human epithelial colorectal adenocarcinoma cells that when cultured under specific conditions the cells become differentiated and polarized such that their phenotype, morphologically and functionally, resembles the enterocytes lining the small intestine. Thus, the Caco-2 monolayer is widely used across the pharmaceutical industry as an in vitro model of the human small intestinal mucosa to predict the absorption of orally-administered drugs.
Caco-2 human colon carcinoma cell line (Caco-2) was used as a model system for intestinal epithelial permeability. There is similarity in uptake and barrier properties between this cell system and the small intestinal epithelial layer. See., Hidalgo I J, et al., Gastroenterology. 1989 March; 96(3):736-49. Characterization of the human colon carcinoma cell line (Caco-2) as a model system for intestinal epithelial permeability.

[1] = In vivo mouse PK, oral bioavailability; settings: plasma, AUC oral / AUC intravenous, read-out: Mouse % F
Experimental: Typical protocol is a single dose intravenous and oral (gavage) administration with blood collection from each animal by cardiac puncture at selected (6 to 8) time points (n=3 mice per time point) into a tube containing an appropriate anticoagulant. The blood is centrifuged and the resulting plasma removed for subsequent analysis. After proper sample preparation, the plasma concentrations of a test compound are determined by LC-MS/MS and the pharmacokinctics (namely, area-under-curve or AUC) of the concentration-time profile from oral administration is compared with the corresponding pharmacokinetics from intravenous administration. […] In addition, Caco values are shown.

Dog oral bioavailability = settings: in vivo, read-out: Dog % F
hERG = biological target: T1, hERG (Homo sapiens, UniProt Q12809); experiment: hERG inhibition, Cerep automated patch-clamp assay in Chinese Hamster Ovary K1 cells; format: cell-based; settings: CHO K1 cells, tail current, read-out: hREG IC50
T1 construct: host or cells: Chinese Hamster Ovary K1 cells
T1 sequence (Q12809 whole entry): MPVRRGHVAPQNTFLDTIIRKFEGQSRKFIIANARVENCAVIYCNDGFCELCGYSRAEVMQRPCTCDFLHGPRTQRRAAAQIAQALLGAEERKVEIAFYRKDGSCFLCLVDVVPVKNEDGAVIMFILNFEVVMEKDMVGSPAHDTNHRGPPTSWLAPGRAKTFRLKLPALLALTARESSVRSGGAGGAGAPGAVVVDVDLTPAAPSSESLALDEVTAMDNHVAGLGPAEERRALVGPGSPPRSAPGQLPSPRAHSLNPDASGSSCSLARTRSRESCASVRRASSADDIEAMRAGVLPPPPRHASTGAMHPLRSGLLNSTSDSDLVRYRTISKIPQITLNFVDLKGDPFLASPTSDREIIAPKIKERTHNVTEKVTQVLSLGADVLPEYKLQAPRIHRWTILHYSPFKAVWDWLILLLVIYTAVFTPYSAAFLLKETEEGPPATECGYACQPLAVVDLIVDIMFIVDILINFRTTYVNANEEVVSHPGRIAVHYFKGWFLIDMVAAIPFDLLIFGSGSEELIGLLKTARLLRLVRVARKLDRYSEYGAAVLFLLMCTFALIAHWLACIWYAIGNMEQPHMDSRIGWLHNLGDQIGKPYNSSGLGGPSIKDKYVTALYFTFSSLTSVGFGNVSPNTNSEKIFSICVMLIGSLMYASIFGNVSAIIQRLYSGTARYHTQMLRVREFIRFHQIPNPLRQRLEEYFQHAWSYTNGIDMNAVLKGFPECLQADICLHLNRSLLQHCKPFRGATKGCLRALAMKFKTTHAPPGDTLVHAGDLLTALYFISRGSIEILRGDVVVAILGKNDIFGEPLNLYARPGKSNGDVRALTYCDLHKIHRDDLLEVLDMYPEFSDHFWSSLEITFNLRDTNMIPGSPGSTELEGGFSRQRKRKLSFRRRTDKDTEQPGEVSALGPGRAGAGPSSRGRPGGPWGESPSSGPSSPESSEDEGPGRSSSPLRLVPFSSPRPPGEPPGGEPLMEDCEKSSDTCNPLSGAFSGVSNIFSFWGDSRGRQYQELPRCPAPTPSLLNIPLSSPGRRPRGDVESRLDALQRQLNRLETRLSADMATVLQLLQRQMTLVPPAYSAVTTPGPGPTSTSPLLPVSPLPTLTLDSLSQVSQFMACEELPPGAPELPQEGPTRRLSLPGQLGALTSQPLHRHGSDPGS
Experimental: A Cerep automated patch-clamp assay using Chinese Hamster Ovary K1 cells was used to measure hERG IC50 values. The degree of inhibition (%) was obtained by measuring the tail current amplitude, which is induced by a one second test pulse to −40 mV after a two second pulse to +20 mV, before and after drug incubation (the difference in current was normalized to control and multiplied by 100 to obtain the percent inhibition).
Concentration (log) response curves were fitted to a logistic equation (three parameters assuming complete block of the current at very high test compound concentrations) to generate estimates of the 50% inhibitory convcentration (IC50). The concentration-response relationship of each compound was constructed from the percentage reductions of current amplitude by sequential concentrations. The MIC and hERG IC50 values are provided in Table 2 below for the compounds tested.

For `CNc1cc(F)cc2c1[nH]c1nc(Oc3cnc(C)nc3)nc(N3C[C@H]4C[C@@H](O)[C@H]4C3)c12` [1.3], the MIC (S. aureus) was no more than 0.016 µg/mL, the MIC (E. coli) was 0.13 µg/mL (≈ 0.299 µM) and the MIC (K. pneumoniae) was 0.5 µg/mL (≈ 1.15 µM). The MIC (A. baumannii) was 1 µg/mL (≈ 2.3 µM), the MIC (P. aeruginosa) was 16 µg/mL (≈ 36.7 µM) and the Caco (Caco-2 cell monolayer) was 5.5 10^−8 cm/s and 6.3 10^−8 cm/s. For the same compound, the bioavailability [1] was 25% and the bioavailability (Dog oral bioavailability) was 50%.

In the case of `CNc1cc(F)cc2c1[nH]c1nc(Oc3cnc(C)nc3)nc(N3CC4CC(N)C4C3)c12` (stereo not shown), the “MIC Sa” value (S. aureus) is reported as no more than 0.016 µg/mL, the “MIC Ec” value (E. coli) is reported as 0.25 µg/mL (≈ 0.575 µM) and the “MIC Kpn” value (K. pneumoniae) is reported as 2 µg/mL (≈ 4.6 µM). The “MIC Ab” value (A. baumannii) was 0.25 µg/mL (≈ 0.575 µM), the “MIC Pa” value (P. aeruginosa) was 1 µg/mL (≈ 2.3 µM) and the IC50 (hERG) was 1 µM.

In the case of `CNc1cc(F)cc2c1[nH]c1nc(Oc3cnc(C)nc3)nc(N3CC4(CCC4O)C3)c12` (stereo not shown), the “MIC Sa” value (S. aureus) is reported as no more than 0.016 µg/mL, the “MIC Ec” value (E. coli) is reported as 1 µg/mL (≈ 2.3 µM) and the “MIC Kpn” value (K. pneumoniae) is reported as 4 µg/mL (≈ 9.19 µM). The “MIC Ab” value (A. baumannii) was 4 µg/mL (≈ 9.19 µM), the “MIC Pa” value (P. aeruginosa) was greater than 16 µg/mL and the IC50 (hERG) was 100 µM.

For `CNc1cc(F)cc2c1[nH]c1nc(Oc3cnc(C)nc3)nc(N3CC4(CCC4N)C3)c12` (stereo not shown), the “MIC Sa” value (S. aureus) was no more than 0.016 µg/mL, the “MIC Ec” value (E. coli) was 0.25 µg/mL (≈ 0.575 µM) and the “MIC Kpn” value (K. pneumoniae) was 2 µg/mL (≈ 4.6 µM). The “MIC Ab” value (A. baumannii) was 0.5 µg/mL (≈ 1.15 µM), the “MIC Pa” value (P. aeruginosa) was 1 µg/mL (≈ 2.3 µM) and the IC50 (hERG) was 16 µM.

In the case of `CNc1cc(F)cc2c1[nH]c1nc(Oc3cnc(C)nc3)nc(N3CC4CC3CC4O)c12` (stereo not shown), the “MIC Sa” value (S. aureus) is reported as no more than 0.016 µg/mL, the “MIC Ec” value (E. coli) is reported as 1 µg/mL (≈ 2.3 µM) and the “MIC Kpn” value (K. pneumoniae) is reported as 8 µg/mL (≈ 18.4 µM). The “MIC Ab” value (A. baumannii) was 4 µg/mL (≈ 9.19 µM), the “MIC Pa” value (P. aeruginosa) was greater than 16 µg/mL and the IC50 (hERG) was 71 µM.

With `CNc1cc(F)cc2c1[nH]c1nc(Oc3cnc(C)nc3)nc(N3CC4CC(O)C4C3)c12` (stereo not shown) the “MIC Sa” value (S. aureus) was no more than 0.016 µg/mL, the “MIC Ec” value (E. coli) was 0.13 µg/mL (≈ 0.299 µM) and the “MIC Kpn” value (K. pneumoniae) was 1 µg/mL (≈ 2.3 µM). For the same compound, the “MIC Ab” value (A. baumannii) was 0.5 µg/mL (≈ 1.15 µM), the “MIC Pa” value (P. aeruginosa) was 16 µg/mL (≈ 36.7 µM) and the IC50 (hERG) was 20 µM.

In the case of `CNc1cc(F)c(F)c2c1[nH]c1nc(Oc3cnc([C@H](C)O)nc3)nc(N3C[C@H]4CC3C[C@H]4N)c12` [1.1], the MIC (S. aureus) is reported as no more than 0.016 µg/mL, the MIC (E. coli) is reported as 0.25 µg/mL (≈ 0.518 µM) and the MIC (K. pneumoniae) is reported as 1 µg/mL (≈ 2.07 µM). For the same compound, the MIC (A. baumannii) was 4 µg/mL (≈ 8.29 µM), the MIC (P. aeruginosa) was 2 µg/mL (≈ 4.15 µM) and the Caco (Caco-2 cell monolayer) was <0.1 10^−8 cm/s. The bioavailability [1] was less than 2%.

`CNc1cc(F)cc2c1[nH]c1nc(Oc3cnc(C)nc3)nc(N3C[C@@H]4[C@@H](O)[C@@H]4C3)c12` [1.4] gave an MIC (S. aureus) of no more than 0.016 µg/mL, an MIC (E. coli) of 0.5 µg/mL (≈ 1.19 µM) and an MIC (K. pneumoniae) of 1 µg/mL (≈ 2.37 µM). For the same compound, the MIC (A. baumannii) was 2 µg/mL (≈ 4.75 µM), the MIC (P. aeruginosa) was greater than 16 µg/mL and the Caco (Caco-2 cell monolayer) was 7.5 10^−8 cm/s. For the same compound, the bioavailability [1] was 15%.

With `CNc1cc(F)cc2c1[nH]c1nc(Oc3cnc(C)nc3)nc(N3CC4CC3CC4N)c12` (stereo not shown) the “MIC Sa” value (S. aureus) was no more than 0.016 µg/mL, the “MIC Ec” value (E. coli) was 0.13 µg/mL (≈ 0.299 µM) and the “MIC Kpn” value (K. pneumoniae) was 2 µg/mL (≈ 4.6 µM). The “MIC Ab” value (A. baumannii) was 0.5 µg/mL (≈ 1.15 µM), the “MIC Pa” value (P. aeruginosa) was 1 µg/mL (≈ 2.3 µM) and the IC50 (hERG) was 4 µM.

With `CNc1cc(F)c(F)c2c1[nH]c1nc(Oc3cnc([C@H](C)O)nc3)nc(N3CC4(CCC4N)C3)c12` (stereo partly shown) [1.2] the MIC (S. aureus) was no more than 0.016 µg/mL, the MIC (E. coli) was 0.13 µg/mL (≈ 0.269 µM) and the MIC (K. pneumoniae) was 1 µg/mL (≈ 2.07 µM). The MIC (A. baumannii) was 2 µg/mL (≈ 4.15 µM), the MIC (P. aeruginosa) was 1 µg/mL (≈ 2.07 µM) and the bioavailability [1] was less than 2%.

In the case of `CNc1cc(F)cc2c1[nH]c1nc(Oc3cnc(C)nc3)nc(N3CC4C(O)C4C3)c12` (stereo not shown), the “MIC Sa” value (S. aureus) is reported as no more than 0.016 µg/mL, the “MIC Ec” value (E. coli) is reported as 0.25 µg/mL (≈ 0.593 µM) and the “MIC Kpn” value (K. pneumoniae) is reported as 1 µg/mL (≈ 2.37 µM). The “MIC Ab” value (A. baumannii) was 0.5 µg/mL (≈ 1.19 µM), the “MIC Pa” value (P. aeruginosa) was greater than 16 µg/mL and the IC50 (hERG) was 41 µM.

For `CNc1cc(F)cc2c1[nH]c1nc(Oc3cnc(C)nc3)nc(N3CC4C(N)C4C3)c12` (stereo not shown), the “MIC Sa” value (S. aureus) was no more than 0.016 µg/mL, the “MIC Ec” value (E. coli) was 0.13 µg/mL (≈ 0.309 µM) and the “MIC Kpn” value (K. pneumoniae) was 2 µg/mL (≈ 4.76 µM). The “MIC Ab” value (A. baumannii) was 0.25 µg/mL (≈ 0.595 µM), the “MIC Pa” value (P. aeruginosa) was 4 µg/mL (≈ 9.51 µM) and the IC50 (hERG) was 9.5 µM.
